From PubChem BioAssay AID330 (DTP/NCI, 2004)
Toxic doses and inconclusive results are not listed. Peptide text beside a SMILES is read from it. * marks the point of attachment. Butyryl = CCCC(=O)*; Bn = c1ccc(C*)cc1

Test system: P388 leukemia ip, CD2F1 mice, survival T/C
Experiment: NCI In Vivo Anticancer Drug Screen. Data for tumor model P388 Leukemia (intraperitoneal) in CD2F1 (CDF1) mice
Details: endpoint: median survival time, higher = longer survival
Summary of the method: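 Mice carrying the transplanted tumor received test compound or vehicle. Survival was recorded in each group, and the value is the treated-group measurement divided by that of the vehicle-treated control group.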

[1] = dose: 50.0 mg/kg/injection, schedule: Q01DX009 (ip), vehicle: saline
[2] = dose: 100.0 mg/kg/injection, schedule: Q01DX009 (ip), vehicle: saline
[3] = dose: 200.0 mg/kg/injection, schedule: Q01DX009 (ip), vehicle: saline
[4] = dose: 25.0 mg/kg/injection, schedule: Q01DX009 (ip), vehicle: saline
[5] = dose: 60.0 mg/kg/injection, schedule: Q01DX005 (ip), vehicle: saline with Tween-80
[6] = dose: 120.0 mg/kg/injection, schedule: Q01DX005 (ip), vehicle: saline with Tween-80
[7] = dose: 240.0 mg/kg/injection, schedule: Q01DX005 (ip), vehicle: saline with Tween-80
[8] = dose: 60.0 mg/kg/injection, schedule: Q01DX005 (ip), vehicle: Klucel (hydroxypropylcellulose) (HPC)
[9] = dose: 120.0 mg/kg/injection, schedule: Q01DX005 (ip), vehicle: Klucel (hydroxypropylcellulose) (HPC)
[10] = dose: 50.0 mg/kg/injection, schedule: Q01DX005 (ip), vehicle: Klucel (hydroxypropylcellulose) (HPC)
[11] = dose: 100.0 mg/kg/injection, schedule: Q01DX005 (ip), vehicle: Klucel (hydroxypropylcellulose) (HPC)
[12] = dose: 200.0 mg/kg/injection, schedule: Q01DX005 (ip), vehicle: Klucel (hydroxypropylcellulose) (HPC)
[13] = dose: 60.0 mg/kg/injection, schedule: Q01DX005 (ip), vehicle: saline
[14] = dose: 120.0 mg/kg/injection, schedule: Q01DX005 (ip), vehicle: saline
[15] = dose: 240.0 mg/kg/injection, schedule: Q01DX005 (ip), vehicle: saline
[16] = dose: 50.0 mg/kg/injection, schedule: Q01DX005 (ip), vehicle: saline with Tween-80
[17] = dose: 100.0 mg/kg/injection, schedule: Q01DX005 (ip), vehicle: saline with Tween-80
[18] = dose: 200.0 mg/kg/injection, schedule: Q01DX005 (ip), vehicle: saline with Tween-80
[19] = dose: 50.0 mg/kg/injection, schedule: Q01DX009 (ip), vehicle: saline with Tween-80
[20] = dose: 200.0 mg/kg/injection, schedule: Q01DX009 (ip), vehicle: saline with Tween-80
[21] = dose: 100.0 mg/kg/injection, schedule: Q01DX009 (ip), vehicle: saline with Tween-80

CC(=O)C1=C(C(C)=O)C2(C)OC1(C)c1ccccc12
T/C (dose: 100.0 mg/kg/injection, schedule: Q01DX001 (ip), vehicle: Klucel (hydroxypropylcellulose) (HPC)): 107 % of control
T/C (dose: 200.0 mg/kg/injection, schedule: Q01DX001 (ip), vehicle: Klucel (hydroxypropylcellulose) (HPC)): 104 % of control
T/C (dose: 400.0 mg/kg/injection, schedule: Q01DX001 (ip), vehicle: Klucel (hydroxypropylcellulose) (HPC)): 99 % of control

OC1COCCC(O)(CNCc2ccccc2)C1O (stereo unspecified)
T/C [1]: 98 % of control
T/C [2]: 107 % of control

C=CCOC(OCC=C)C(OCC=C)OCC=C
T/C [2]: 109 % of control
T/C (dose: 100.0 mg/kg/injection, schedule: Q04DX003 (ip), vehicle: saline): 100 % of control
T/C [3]: 100 % of control
T/C (dose: 200.0 mg/kg/injection, schedule: Q04DX003 (ip), vehicle: saline): 100 % of control
T/C (dose: 400.0 mg/kg/injection, schedule: Q01DX009 (ip), vehicle: saline): 122 % of control
T/C (dose: 400.0 mg/kg/injection, schedule: Q04DX003 (ip), vehicle: saline): 100 % of control

CCOC(=O)NCC(C)(C)CNC(=O)OCC
T/C (dose: 3.13 mg/kg/injection, schedule: Q01DX009 (ip), vehicle: saline): 100 % of control
T/C (dose: 6.25 mg/kg/injection, schedule: Q01DX009 (ip), vehicle: saline): 105 % of control
T/C (dose: 12.5 mg/kg/injection, schedule: Q01DX009 (ip), vehicle: saline): 105 % of control
T/C [4]: 103 % of control

O=C1CC2C(O)OC(O)C(C1)N2C(=O)OCC(Cl)(Cl)Cl (stereo unspecified)
T/C (dose: 6.25 mg/kg/injection, schedule: Q01DX005 (ip), vehicle: Klucel (hydroxypropylcellulose) (HPC)): 106 % of control
T/C (dose: 12.5 mg/kg/injection, schedule: Q01DX005 (ip), vehicle: Klucel (hydroxypropylcellulose) (HPC)): 106 % of control
T/C (dose: 25.0 mg/kg/injection, schedule: Q01DX005 (ip), vehicle: Klucel (hydroxypropylcellulose) (HPC)): 114 % of control

CC1OS(=O)(=O)CS(=O)(=O)OC1C (stereo unspecified)
T/C [5]: 101 % of control
T/C [6]: 101 % of control

Cc1ccc(-n2cc(-c3ccc(Cl)cc3)c3c(N)ncnc32)cc1
T/C [5]: 105 % of control
T/C [6]: 104 % of control
T/C [7]: 88 % of control

[CH3][Sn]([CH3])([N]=C=S)[N]=C=S.c1ccc(-c2nnc(-c3ccccn3)nc2-c2ccccc2)cc1
T/C [8]: 100 % of control
T/C [9]: 104 % of control

CNC(=O)C(O)c1c(-c2ccccc2)c(-c2ccccc2)c2n1CCC2 (stereo unspecified)
T/C [8]: 96 % of control
T/C [9]: 89 % of control
T/C (dose: 240.0 mg/kg/injection, schedule: Q01DX005 (ip), vehicle: Klucel (hydroxypropylcellulose) (HPC)): 86 % of control

CC1(C)CC(=O)C(C(=O)c2ccccc2)=[N+]1[O-]
T/C [10]: 97 % of control
T/C [11]: 100 % of control
T/C [12]: 99 % of control

Nc1c2c(=O)[nH]c(=O)c2c(N)c2c(=O)c3ccccc3c(=O)c12
T/C [13]: 103 % of control
T/C [14]: 104 % of control
T/C [15]: 105 % of control

CCC1(O)C[C@@]2(CCCCC2I)OC1=O (stereo partly specified)
T/C [16]: 100 % of control
T/C [17]: 103 % of control
T/C [18]: 106 % of control

COC(=O)/C=C(\Br)C(=O)OC
T/C (dose: 1.56 mg/kg/injection, schedule: Q01DX009 (ip), vehicle: saline with Tween-80): 106 % of control
T/C (dose: 3.12 mg/kg/injection, schedule: Q01DX009 (ip), vehicle: saline with Tween-80): 98 % of control
T/C (dose: 6.25 mg/kg/injection, schedule: Q01DX009 (ip), vehicle: saline with Tween-80): 101 % of control

CCCCCCC(=O)CC(SCCO)c1ccccc1Cl (stereo unspecified)
T/C [5]: 92 % of control
T/C [6]: 107 % of control
T/C [7]: 114 % of control

CCCn1c(C)nc2[nH]ncc2c1=O
T/C [10]: 100 % of control
T/C [11]: 98 % of control
T/C [12]: 92 % of control

CCCCc1c(O)c(N=NC(=N)N)c2ccccc2c1O
T/C [16]: 100 % of control
T/C [17]: 101 % of control
T/C [18]: 99 % of control

CCOC(=O)c1c(-c2ccccc2)nn2c1COC(=O)C2
T/C [16]: 103 % of control
T/C [17]: 99 % of control
T/C [18]: 98 % of control

CCCCCOC(=O)c1ccccc1OP(=O)(N(C)C)N(C)C
T/C (dose: 50.0 mg/kg/injection, schedule: Q01DX005 (ip), vehicle: saline): 103 % of control
T/C (dose: 100.0 mg/kg/injection, schedule: Q01DX005 (ip), vehicle: saline): 110 % of control

CN(C)c1ccc(Sc2ccc3nc(N)nc(N)c3c2)cc1
T/C [19]: 95 % of control
T/C [20]: 174 % of control
T/C (dose: 400.0 mg/kg/injection, schedule: Q01DX009 (ip), vehicle: saline with Tween-80): 117 % of control

O=C(C[N+]12CN3CN(CN(C3)C1)C2)c1ccc2c(c1)CCCC2
T/C [10]: 100 % of control
T/C [11]: 103 % of control
T/C [12]: 106 % of control

N#Cc1cc([N+](=O)[O-])c(Cl)c([N+](=O)[O-])c1Cl
T/C (dose: 3.13 mg/kg/injection, schedule: Q04DX003 (ip), vehicle: saline with Tween-80): 100 % of control
T/C (dose: 6.25 mg/kg/injection, schedule: Q04DX003 (ip), vehicle: saline with Tween-80): 100 % of control
T/C (dose: 12.5 mg/kg/injection, schedule: Q04DX003 (ip), vehicle: saline with Tween-80): 100 % of control

C=CC1=C(C)C(/C=c2/[nH]/c(=C\c3[nH]c(/C=C4/NC(=O)C(C)=C4C=C)c(C)c3CCC(=O)O)c(CCC(=O)O)c2C)=NC1=O
T/C [19]: 95 % of control
T/C [21]: 91 % of control
T/C [20]: 88 % of control

O=C(O)CC(CS(=O)CP(=O)(O)O)C(=O)O (stereo unspecified)
T/C [13]: 93 % of control
T/C [14]: 98 % of control
T/C [15]: 95 % of control

Fc1ccc(N=Cc2ccc(C=Nc3ccc(F)cc3)cc2)cc1
T/C [1]: 100 % of control
T/C [2]: 100 % of control
T/C [3]: 97 % of control

COc1cccc2c1C(=O)c1c(O)c3c(c(O)c1C2=O)C[C@@](O)(C(=O)CO)C[C@@H]3OC1CC(NC=O)C(O)C(C)O1 (stereo partly specified)
T/C (dose: 1.56 mg/kg/injection, schedule: Q01DX009 (ip), vehicle: Klucel (hydroxypropylcellulose) (HPC)): 95 % of control
T/C (dose: 7.4 mg/kg/injection, schedule: Q01DX009 (ip), vehicle: other): 163 % of control
T/C (dose: 11.0 mg/kg/injection, schedule: Q01DX009 (ip), vehicle: other): 157 % of control
T/C (dose: 16.5 mg/kg/injection, schedule: Q01DX009 (ip), vehicle: other): 163 % of control
T/C (dose: 25.0 mg/kg/injection, schedule: Q01DX009 (ip), vehicle: other): 192 % of control
T/C (dose: 37.5 mg/kg/injection, schedule: Q01DX009 (ip), vehicle: other): 201 % of control
T/C (dose: 50.0 mg/kg/injection, schedule: Q01DX009 (ip), vehicle: Klucel (hydroxypropylcellulose) (HPC)): 121 % of control

CCCC(=O)NC(CSCc1ccccc1)C(=O)NC(CCC(=O)OC)C(=O)OC (stereo unspecified) (Butyryl-Cys(Bn)-Glu(OMe)-OMe; configuration not given here)
T/C [19]: 104 % of control
T/C [21]: 104 % of control
T/C [20]: 96 % of control

OC(COc1cccc(C(F)(F)F)c1)CN1CCN(c2ccc(F)cc2)CC1 (stereo unspecified)
T/C (dose: 12.5 mg/kg/injection, schedule: Q01DX009 (ip), vehicle: saline with Tween-80): 100 % of control
T/C (dose: 25.0 mg/kg/injection, schedule: Q01DX009 (ip), vehicle: distilled water + Tween-80): 106 % of control
T/C (dose: 25.0 mg/kg/injection, schedule: Q01DX009 (ip), vehicle: saline with Tween-80): 106 % of control
T/C (dose: 50.0 mg/kg/injection, schedule: Q01DX009 (ip), vehicle: distilled water + Tween-80): 108 % of control
T/C [19]: 124 % of control

O=C(O)/C=C\C(=O)O
T/C (dose: 1.5 mg/kg/injection, schedule: Q01DX009 (ip), vehicle: saline with Tween-80): 95 % of control
T/C (dose: 3.0 mg/kg/injection, schedule: Q01DX009 (ip), vehicle: saline with Tween-80): 100 % of control
T/C (dose: 6.0 mg/kg/injection, schedule: Q01DX009 (ip), vehicle: saline with Tween-80): 109 % of control
T/C [4]: 95 % of control
T/C [1]: 104 % of control
T/C [2]: 95 % of control

C=CCC1(O)CC2NC(C1)[C@@H]1OC(C)(C)O[C@H]21 (stereo partly specified)
T/C [10]: 92 % of control
T/C [11]: 87 % of control
T/C [12]: 94 % of control
